According to patent publication US20070003586A1, “Insecticidal coating for use on cellulosic substrates” (priority 2005, published 2007):

Assay: LD50 (lethal dose 50%) value
Settings: rat, in vivo; insecticide as such; subjects typically rats
Protocol: According to one aspect of the present invention, an insecticidal coating composition for use on cellulosic substrates is provided comprising a polyvinyl acetate emulsion; a vinyl acetate ethylene copolymer emulsion; and an insecticide having an LD50 value of between about 14,500 to about 15,500 mg/kg. By “LD50” value, it is meant “lethal dose 50%” value, which indicates the quantity of a substance, which, when administered to a population of subjects (typically rats), will cause 50% of the subjects to perish.

Compound: CC1(C)[C@H](C(=O)O[C@H](C#N)c2cccc(Oc3ccccc3)c2)[C@@H]1C=C(Br)Br [deltamethrin, (S)-cyano-3-phenoxybenzyl(1R)-cis-3-(2,2-dibromovinyl)-2,2-dimethylcyclopropane carboxylate]
- LD50: ~15000 mg/kg
